Experimental data taken from patent US20250382303A1, “NOVEL COMPOUND AS NADPH OXIDASE 2 INHIBITOR AND PHARMACEUTICAL COMPOSITION CONTAINING SAME” (DONGGUK UNIVERSITY INDUSTRY-ACADEMIC COOPERATION FOUNDATION, priority 2022, published 2025).

Biological target: T1, NOX2 (Homo sapiens, UniProt P04839)
T1 construct: Used for the NOX2 activity assay was human leukemia 60 cells (HL-60), which are widely, universally used to assess NOX2 activity; endogenous in cells
T1 sequence (P04839 2-570 limits assumed): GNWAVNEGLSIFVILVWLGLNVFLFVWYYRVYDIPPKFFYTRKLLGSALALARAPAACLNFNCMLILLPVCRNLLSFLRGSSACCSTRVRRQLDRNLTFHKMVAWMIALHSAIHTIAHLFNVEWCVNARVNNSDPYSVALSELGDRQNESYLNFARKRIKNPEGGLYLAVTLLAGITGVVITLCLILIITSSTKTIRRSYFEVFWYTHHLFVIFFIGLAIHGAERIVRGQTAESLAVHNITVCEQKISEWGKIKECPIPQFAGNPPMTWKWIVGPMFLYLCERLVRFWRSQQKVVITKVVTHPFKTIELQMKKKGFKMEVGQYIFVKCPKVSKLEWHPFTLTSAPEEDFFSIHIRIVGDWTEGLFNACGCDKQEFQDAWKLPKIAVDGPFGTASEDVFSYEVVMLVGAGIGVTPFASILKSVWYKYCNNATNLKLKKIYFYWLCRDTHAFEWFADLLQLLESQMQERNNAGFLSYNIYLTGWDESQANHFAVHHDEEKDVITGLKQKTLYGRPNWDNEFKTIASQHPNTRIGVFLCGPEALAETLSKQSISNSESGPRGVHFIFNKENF
T1 sequence (P13498 2-195 partner limits assumed): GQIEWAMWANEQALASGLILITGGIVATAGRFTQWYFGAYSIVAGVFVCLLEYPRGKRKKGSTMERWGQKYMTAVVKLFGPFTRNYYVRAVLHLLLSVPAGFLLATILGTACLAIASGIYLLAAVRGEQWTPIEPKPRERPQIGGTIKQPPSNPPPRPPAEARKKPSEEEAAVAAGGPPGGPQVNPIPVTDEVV
Assay: NOX2 activity assay: PMA-induced ROS in ATRA-differentiated HL-60 cells (WST-1 or Amplex Red/HRP probe)
Assay type: cell-based
Details: for IC50: WST-1 probe, differentiated HL-60, 200 ng/mL PMA, read-out: Inhibitory ability (NOX2); for NOX2 inhibitory ability, verbal rating: WST-1, comment on Table 1
Protocol: NOX activity was evaluated by measuring the reactive oxygen species (ROS) produced by NOX. The probes that were used to measure ROS were water soluble tetrazolium-1 (WST-1, superoxide-specific colorimetric probe) and Amplex Red/horseradish peroxidase (AR/HRP, hydrogen peroxide-specific fluorometric probe), and the concentration of the probes used was […]. For WST-1, the change in the absorbance at 450 nm was measured, and, for AR, the change in fluorescence signals was measured at 560 nm and 585 nm, respectively for excitation wavelength (Ex) and emission wavelength (Em). The optical signal was measured using the SpectraMax M3 microplate reader from Molecular Devices at 37° C. for 60 minutes.
Used for the NOX2 activity assay was human leukemia 60 cells (HL-60), which are widely, universally used to assess NOX2 activity. 1×10^5 cells/mL of HL-60 were treated with […] all-trans-retinoic acid (ATRA) for 4 days to induce differentiation. Differentiated HL-60 (diff. HL-60) was centrifuged at 200 g for 5 minutes and washed twice with HBSS. Differentiation was induced to reach 3×10^4 cells/well on a 96-well plate (diff). HL-60 was seeded. The test material was treated to cells and left in a 37° C. incubator for 60 minutes. As a control group, the same concentration of DMSO, which is the vehicle of the test material, was used. 200 ng/mL phorbol 12-myristate 13-acetate (PMA) was used as the NOX2 activator, and the production amount of ROS induced by PMA was measured for 60 minutes. […] diphenyleneiodonium (DPI), which is well known to inhibit NOX, was used as a positive control group to evaluate whether the NOX2 activity tester properly operates.

Row | IC50 [µM] | NOX2 inhibitory ability, verbal rating | SMILES
1 | 1 to 10 | – | CC12CC(NC(=O)N1c1cccc(C(=O)N3CCc4c(cccc4C(F)(F)F)C3)c1)c1cc(Br)ccc1O2 (stereo not shown) [Compound 27e, 8-Bromo-2-methyl-3-(3-(5-(trifluoromethyl)-1,2,3,4-tetrahydroisoquinoline-2-carbonyl)phenyl)-5,6-dihydro-2H-2,6-methanobenzo[g][1,3,5]oxadiazocin-4(3H)-one]
2 | 1 to 10 | – | CC12CC(NC(=O)N1c1cccc(C(=O)N3CCc4cc(C(F)(F)F)ccc4C3)c1)c1cc(Br)ccc1O2 (stereo not shown) [Compound 27h, 8-Bromo-2-methyl-3-(3-(6-(trifluoromethyl)-1,2,3,4-tetrahydroisoquinoline-2-carbonyl)phenyl)-5,6-dihydro-2H-2,6-methanobenzo[g][1,3,5]oxadiazocin-4(3H)-one]
3 | 1 to 10 | – | CC12CC(NC(=O)N1c1cccc(C(=O)N3CCc4ccc(F)cc4C3)c1)c1cc(-c3ccoc3)ccc1O2 (stereo not shown) [Compound 28a, 3-(3-(7-Fluoro-1,2,3,4-tetrahydroisoquinoline-2-carbonyl)phenyl)-8-(furan-3-yl)-2-methyl-5,6-dihydro-2H-2,6-methanobenzo[g][1,3,5]oxadiazocin-4(3H)-one]
4 | 1 to 10 | excellent inhibitory ability | CC12CC(NC(=O)N1c1cccc(C(=O)N3CCc4cc(F)ccc4C3)c1)c1cc(-c3ccoc3)ccc1O2 (stereo not shown) [Compound 28b, 3-(3-(6-Fluoro-1,2,3,4-tetrahydroisoquinoline-2-carbonyl)phenyl)-8-(furan-3-yl)-2-methyl-5,6-dihydro-2H-2,6-methanobenzo[g][1,3,5]oxadiazocin-4(3H)-one]
5 | > 10 | excellent inhibitory ability | CC12CC(NC(=O)N1c1cccc(C(=O)N3CCc4cccc(F)c4C3)c1)c1cc(-c3ccoc3)ccc1O2 (stereo not shown) [Compound 28c, 3-(3-(8-Fluoro-1,2,3,4-tetrahydroisoquinoline-2-carbonyl)phenyl)-8-(furan-3-yl)-2-methyl-5,6-dihydro-2H-2,6-methanobenzo[g][1,3,5]oxadiazocin-4(3H)-one]
6 | > 10 | excellent inhibitory ability | CC12CC(NC(=O)N1c1cccc(C(=O)N3CCc4c(F)cccc4C3)c1)c1cc(-c3ccoc3)ccc1O2 (stereo not shown) [Compound 28d, 3-(3-(5-Fluoro-1,2,3,4-tetrahydroisoquinoline-2-carbonyl)phenyl)-8-(furan-3-yl)-2-methyl-5,6-dihydro-2H-2,6-methanobenzo[g][1,3,5]oxadiazocin-4(3H)-one]
7 | 1 to 10 | – | CC12CC(NC(=O)N1c1cccc(C(=O)N3CCc4c(cccc4C(F)(F)F)C3)c1)c1cc(-c3ccoc3)ccc1O2 (stereo not shown) [Compound 28e, 8-(Furan-3-yl)-2-methyl-3-(3-(5-(trifluoromethyl)-1,2,3,4-tetrahydroisoquinoline-2-carbonyl)phenyl)-5,6-dihydro-2H-2,6-methanobenzo[g][1,3,5]oxadiazocin-4(3H)-one]
8 | > 10 | – | CC12CC(NC(=O)N1c1cccc(C(=O)N3CCc4ccc(C(F)(F)F)cc4C3)c1)c1cc(-c3ccoc3)ccc1O2 (stereo not shown) [Compound 28f, 8-(Furan-3-yl)-2-methyl-3-(3-(7-(trifluoromethyl)-1,2,3,4-tetrahydroisoquinoline-2-carbonyl)phenyl)-5,6-dihydro-2H-2,6-methanobenzo[g][1,3,5]oxadiazocin-4(3H)-one]
9 | > 10 | – | CC12CC(NC(=O)N1c1cccc(C(=O)N3CCc4cccc(C(F)(F)F)c4C3)c1)c1cc(-c3ccoc3)ccc1O2 (stereo not shown) [Compound 28g, 8-(Furan-3-yl)-2-methyl-3-(3-(8-(trifluoromethyl)-1,2,3,4-tetrahydroisoquinoline-2-carbonyl)phenyl)-5,6-dihydro-2H-2,6-methanobenzo[g][1,3,5]oxadiazocin-4(3H)-one]
10 | > 10 | – | CC12CC(NC(=O)N1c1cccc(C(=O)N3CCc4cc(C(F)(F)F)ccc4C3)c1)c1cc(-c3ccoc3)ccc1O2 (stereo not shown) [Compound 28h, 8-(Furan-3-yl)-2-methyl-3-(3-(6-(trifluoromethyl)-1,2,3,4-tetrahydroisoquinoline-2-carbonyl)phenyl)-5,6-dihydro-2H-2,6-methanobenzo[g][1,3,5]oxadiazocin-4(3H)-one]
